Source: PubChem BioAssay (NCI)
Several values for one entry are separate records, joined by “and”; a condition that tells them apart may be missing. Equal entries are not always repeated.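 Step 1: Grow cells in 96-well plates. Step 2: Expose to compound for 48 hours at 5 concentrations. Step 3: Interpolate endpoints linearly; if unreached, use highest concentration. The concentration for 50% growth inhibition is given as GI50. TGI: total growth inhibition.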

How the values were obtained:
Assay in all cases: NCI tumour cell line growth inhibition, 48 h
[1] = test system: A498 renal
[2] = test system: A549 NSCLC
[3] = test system: CAKI-1 renal
[4] = test system: CCRF-CEM leukemia
[5] = test system: COLO 205 colon
[6] = test system: DLD-1 colon
[7] = test system: DMS 114 small cell lung
[8] = test system: DMS 273 small cell lung
[9] = test system: EKVX NSCLC
[10] = test system: HCC-2998 colon
[11] = test system: HCT-116 colon
[12] = test system: HCT-15 colon
[13] = test system: HL-60(TB) leukemia
[14] = test system: HOP-18 NSCLC
[15] = test system: HOP-62 NSCLC
[16] = test system: HOP-92 NSCLC
[17] = test system: HT29 colon
[18] = test system: IGROV1 ovarian
[19] = test system: K-562 leukemia
[20] = test system: KM12 colon
[21] = test system: KM20L2 colon
[22] = test system: LOX IMVI melanoma
[23] = test system: M19-MEL melanoma
[24] = test system: MALME-3M melanoma
[25] = test system: MCF7 breast
[26] = test system: MOLT-4 leukemia
[27] = test system: NCI-H226 lung
[28] = test system: NCI-H23 lung
[29] = test system: NCI-H460 lung
[30] = test system: NCI-H522 lung
[31] = test system: NCI/ADR-RES ovarian
[32] = test system: OVCAR-3 ovarian
[33] = test system: OVCAR-4 ovarian
[34] = test system: OVCAR-5 ovarian
[35] = test system: OVCAR-8 ovarian
[36] = test system: P388 leukemia
[37] = test system: P388/ADR leukemia
[38] = test system: RPMI-8226 leukemia
[39] = test system: RXF 393 renal
[40] = test system: SF-268 CNS
[41] = test system: SF-295 CNS
[42] = test system: SF-539 CNS
[43] = test system: SK-MEL-2 melanoma
[44] = test system: SK-MEL-28 melanoma
[45] = test system: SK-MEL-5 melanoma
[46] = test system: SK-OV-3 ovarian
[47] = test system: SN12C renal
[48] = test system: SN12K1 renal
[49] = test system: SNB-19 CNS
[50] = test system: SNB-75 CNS
[51] = test system: SNB-78 CNS
[52] = test system: SW-620 colon
[53] = test system: U251 CNS
[54] = test system: UACC-257 melanoma
[55] = test system: UACC-62 melanoma
[56] = test system: UO-31 renal
[57] = test system: XF 498 CNS
[58] = test system: 786-0 renal
[59] = test system: ACHN renal
[60] = test system: LXFL 529 NSCLC
[61] = test system: M14 melanoma
[62] = test system: RXF-631 renal
[63] = test system: SR leukemia
[64] = test system: TK-10 renal

O=C1C=CC2OC(c3ccccc3)C(O)C2O1 (stereo not given)
TGI [1]: 5.85 µM
TGI [2]: 14.5 µM
TGI [3]: 13 µM
TGI [4]: 11.6 µM
TGI [5]: 11 µM
TGI [6]: 13.9 µM
TGI [7]: 14.7 µM
TGI [8]: 18.2 µM
TGI [9]: 15.4 µM
TGI [10]: 10.9 µM
TGI [11]: 10.6 µM
TGI [12]: 14.4 µM
TGI [13]: 3.29 µM
TGI [14]: 1.81 µM
TGI [15]: 26 µM
TGI [16]: 10.2 µM
TGI [17]: 35.2 µM
TGI [18]: 29.1 µM
TGI [19]: 59.7 µM
TGI [20]: 17.3 µM
TGI [21]: 23.8 µM
TGI [22]: 8.18 µM
TGI [23]: 30.8 µM
TGI [24]: 11.3 µM
TGI [25]: 16.8 µM
TGI [26]: 4.41 µM
TGI [27]: 5.2 µM
TGI [28]: 12.6 µM
TGI [29]: 16.2 µM
TGI [30]: 4 µM
TGI [31]: 15.2 µM
TGI [32]: 10.7 µM
TGI [33]: 17.9 µM
TGI [34]: 21.5 µM
TGI [35]: 20.2 µM
TGI [36]: 6.53 µM
TGI [37]: 7.63 µM
TGI [38]: 7.65 µM
TGI [39]: 4.47 µM
TGI [40]: 15.6 µM
TGI [41]: 19.6 µM
TGI [42]: 14.1 µM
TGI [43]: 6.63 µM
TGI [44]: 11.8 µM
TGI [45]: 17.1 µM
TGI [46]: 39.5 µM
TGI [47]: 22.9 µM
TGI [48]: 14.9 µM
TGI [49]: 30.2 µM
TGI [50]: 31 µM
TGI [51]: 46.3 µM
TGI [52]: 9.87 µM
TGI [53]: 22.4 µM
TGI [54]: 18.5 µM
TGI [55]: 20.9 µM
TGI [56]: 21.1 µM
TGI [57]: 10.1 µM

CSCS(=O)C[C@H](CO)NC(=O)/C=C/c1c(C)[nH]c(=O)[nH]c1=O (stereo not given in full)
TGI [58]: 5.23 µM
GI50 [1]: 0.434 µM
TGI [1]: 2 µM and 2.06 µM
GI50 [2]: 1.99 µM
TGI [2]: 8.93 µM and 5.64 µM
TGI [59]: 6.86 µM
GI50 [3]: 2.74 µM
GI50 [4]: 1.46 µM
TGI [4]: 8.69 µM and 4.02 µM
GI50 [5]: 3.16 µM
GI50 [6]: 2.23 µM
TGI [6]: > 23.4 µM and 7.25 µM
GI50 [7]: 1.7 µM
TGI [7]: 6.61 µM and 3.1 µM
GI50 [8]: 3.38 µM
TGI [8]: 28.1 µM and 4.54 µM
GI50 [9]: 3.3 µM
TGI [9]: 12.7 µM and 4.98 µM
GI50 [10]: 2.5 µM
TGI [10]: 6.27 µM and 4.1 µM
GI50 [11]: 3.16 µM
GI50 [12]: 2.93 µM
TGI [12]: 13.6 µM and 6.92 µM
GI50 [13]: 2.23 µM
TGI [13]: 4.96 µM and 3.44 µM
GI50 [14]: 1.22 µM
TGI [14]: > 30.8 µM and 5.85 µM
GI50 [15]: 1.57 µM
TGI [15]: 4.92 µM and 3.67 µM
GI50 [16]: 0.815 µM
TGI [16]: 4.05 µM and 0.778 µM
GI50 [17]: 2.3 µM
TGI [17]: 10 µM and 12.2 µM
GI50 [18]: 1.78 µM
TGI [18]: 9.35 µM and 14.1 µM
GI50 [19]: 1.72 µM
TGI [19]: 8.83 µM and 5.01 µM
GI50 [20]: 1.95 µM
TGI [20]: 7.6 µM and 3.98 µM
GI50 [21]: 2.07 µM
TGI [21]: 12 µM and 4.35 µM
GI50 [22]: 0.449 µM
TGI [22]: 2.07 µM and 3.87 µM
TGI [60]: 7.65 µM
TGI [61]: 2.79 µM
GI50 [23]: 2.38 µM
TGI [23]: 15.2 µM and 3.32 µM
GI50 [24]: 1.08 µM
TGI [24]: 3.08 µM and 2.05 µM
TGI [25]: 6.86 µM
TGI [26]: 6.73 µM and 5.09 µM
TGI [27]: 3.42 µM
GI50 [28]: 1.84 µM
TGI [28]: 4.95 µM and 2.47 µM
GI50 [29]: 1.19 µM
TGI [29]: > 27.6 µM and 7.55 µM
GI50 [30]: 1.35 µM
TGI [30]: 3.3 µM and 2.36 µM
TGI [31]: 6.07 µM
GI50 [32]: 1.89 µM
TGI [32]: 4.63 µM and 3.98 µM
GI50 [33]: 0.296 µM
TGI [33]: 1.07 µM and 0.994 µM
GI50 [34]: 2.7 µM
TGI [34]: 9.91 µM and 7.24 µM
GI50 [35]: 1.02 µM
TGI [35]: 3.96 µM and 4.35 µM
TGI [36]: 1.78 µM
TGI [37]: 7.12 µM
TGI [38]: 6.71 µM
GI50 [39]: 1.28 µM
TGI [39]: 3.7 µM and 2.97 µM
TGI [62]: 14.7 µM
GI50 [40]: 0.571 µM
TGI [40]: 3.86 µM and 1.37 µM
GI50 [41]: 0.406 µM
TGI [41]: 2.64 µM and 2.37 µM
GI50 [42]: 1.2 µM
TGI [42]: 4.1 µM and 2.66 µM
GI50 [43]: 1.65 µM
TGI [43]: 4.59 µM and 2.75 µM
GI50 [44]: 1.89 µM
TGI [44]: 7.94 µM and 3.51 µM
GI50 [45]: 1.7 µM
TGI [45]: 5.07 µM and 5.39 µM
TGI [46]: 6.11 µM and 6.96 µM
GI50 [47]: 1.46 µM
TGI [47]: 7.79 µM and 5.49 µM
TGI [48]: 4.42 µM
GI50 [49]: 0.605 µM
TGI [49]: 8.35 µM and 5.11 µM
GI50 [50]: 1.14 µM
TGI [50]: 4.15 µM and 1.03 µM
GI50 [51]: 0.919 µM
TGI [51]: 5.91 µM and 2.74 µM
TGI [63]: 22.8 µM
GI50 [52]: 3.35 µM
TGI [52]: > 54.6 µM and 25.4 µM
TGI [64]: > 29.5 µM
GI50 [53]: 0.498 µM and 0.297 µM
TGI [53]: 3.63 µM and 1.91 µM
GI50 [54]: 2.22 µM
TGI [54]: 7.79 µM and 4.86 µM
GI50 [55]: 1.39 µM
TGI [55]: 4.56 µM and 3.44 µM
GI50 [56]: 2.97 µM
TGI [56]: 10.2 µM and 4.26 µM
TGI [57]: 0.548 µM
